From US10668159B2, “Anti-methanogenic compositions and uses thereof” (Cedars-Sinai Medical Center, priority 2014, dated 2020)

Tests used:
M. smithii = assay: Lovastatin gavage in M. smithii colonized high-fat diet rats, qPCR of bowel segments; format: in vivo, Sprague-Dawley rats; conditions: 1.5 mg/rat gavaged daily for 10 days
Protocol: The rats were assessed for increased M. smithii by qPCR before and after the diet, and then divided into 3 groups. Group 1 was given lovastatin in its lactone form, Group 2 was given lovastatin hydroxy acid (each 1.5 mg/rat), and Group 3 was gavaged with a placebo. Each group was gavaged daily for 10 days. Three day stool collections were performed to assess average stool wet weight and daily variability prior to commencing the high fat diet, after 7 weeks of high-fat diet, and the final days of the lovastatin gavage (still on high-fat diet). On day 10 of the gavage, rats were euthanized and DNA was extracted from contents of ligated bowel segments (duodenum, jejunum, ileum, cecum and left colon). qPCR was performed using primers for total luminal bacteria and M. smithii.

[1] = pylorus-ligated rats, within 30 min; cited from earlier work
[2] = after oral administration; cited from earlier work
[3] = system: human and rat fecal bacterial enzyme fractions; conditions: over a 12 h period; cited from earlier work
[4] = Binary stress testing of 1:1 lovastatin/excipient mixtures, HPLC; conditions: range of temperature and humidity conditions, 7 days
Protocol: The compatibility of lovastatin drug substance with formulation excipients was evaluated in binary stress testing studies where 1:1 mixtures of lovastatin and each excipient were stored for 7 days under different conditions of temperature and relative humidity (RH). Samples were analyzed by HPLC (based on USP methods) at day 0 and day 7.

Row | SMILES | M. smithii levels in the colon (M. smithii) | ratio of M. smithii to total bacteria in the ileum (M. smithii; versus placebo) | fraction of an intragastric dose that exited the gastric juice [1] [%] | pre-portal hydrolysis in vivo [2] [%] | loss of lovastatin lactone [3] | stability in binary stress testing [4]
1 | CC[C@H](C)C(=O)O[C@H]1C[C@@H](C)C=C2C=C[C@H](C)[C@H](CC[C@@H]3C[C@@H](O)CC(=O)O3)[C@H]21 [Lovastatin] | unaffected | reduced | ~30 | ~10 | 8-19% | stable
2 | CC[C@H](C)C(=O)O[C@H]1C[C@@H](C)C=C2C=C[C@H](C)[C@H](CC[C@@H](O)C[C@@H](O)CC(=O)O)[C@H]21 [lovastatin β-hydroxyacid] | unaffected | – | ~30 | – | – | –
